{"source": "paper PMC4221044", "about": "“Antimicrobial GL13K Peptide Coatings Killed and Ruptured the Wall of Streptococcus gordonii and Prevented Formation and Growth of Biofilms” (PLoS ONE, 2014)", "origin": "cited, not measured here", "key": {"[1]": {"test_system": "planktonic Pseudonomas aeruginosa", "details": "peptide in solution", "from_the_text": "(§1) Functionalization of titanium surfaces with coatings made of antimicrobial agents has recently been explored to inhibit peri-implant infections. The coatings can contain nanoparticles of pure elements, [5]; sanitizing agents and disinfectants; and antibiotics as well as antimicrobial peptides. Gentamicin [7]–[9] and Vancomycin [10]–[13] have been coated on Ti surfaces for protecting from infection dental and orthopedic implants."}, "[2]": {"test_system": "Pseudonomas aeruginosa biofilms", "details": "100 µg/ml GL13K", "from_the_text": "as §1"}, "[3]": {"test_system": "Streptococcus gordonii", "details": "100 µg/ml GL13K", "from_the_text": "as §1"}}}
{"substance": "GKIIKLKASLKLL-NH2 [GL13K, antimicrobial peptide …-NH2 derived from the human salivary protein BPIFA2]", "values": [{"measurement": "MIC", "setting": "[1]", "value": 8, "unit": "µg/mL"}, {"measurement": "reduction of biofilms", "setting": "[2]", "value": "three orders of magnitude"}, {"measurement": "bacteria killed", "setting": "[3]", "value": 100, "unit": "%"}]}
